Where only a bound is given, the exact number is not on record here.

For one data set, the target named is T1, OATP2B1 (Homo sapiens, UniProt O94956).
T1 construct: expressed in transfected cells; host or cells: HEK293 cells (ATCC) transduced with recombinant OATP2B1 baculovirus
T1 sequence (O94956 1-709): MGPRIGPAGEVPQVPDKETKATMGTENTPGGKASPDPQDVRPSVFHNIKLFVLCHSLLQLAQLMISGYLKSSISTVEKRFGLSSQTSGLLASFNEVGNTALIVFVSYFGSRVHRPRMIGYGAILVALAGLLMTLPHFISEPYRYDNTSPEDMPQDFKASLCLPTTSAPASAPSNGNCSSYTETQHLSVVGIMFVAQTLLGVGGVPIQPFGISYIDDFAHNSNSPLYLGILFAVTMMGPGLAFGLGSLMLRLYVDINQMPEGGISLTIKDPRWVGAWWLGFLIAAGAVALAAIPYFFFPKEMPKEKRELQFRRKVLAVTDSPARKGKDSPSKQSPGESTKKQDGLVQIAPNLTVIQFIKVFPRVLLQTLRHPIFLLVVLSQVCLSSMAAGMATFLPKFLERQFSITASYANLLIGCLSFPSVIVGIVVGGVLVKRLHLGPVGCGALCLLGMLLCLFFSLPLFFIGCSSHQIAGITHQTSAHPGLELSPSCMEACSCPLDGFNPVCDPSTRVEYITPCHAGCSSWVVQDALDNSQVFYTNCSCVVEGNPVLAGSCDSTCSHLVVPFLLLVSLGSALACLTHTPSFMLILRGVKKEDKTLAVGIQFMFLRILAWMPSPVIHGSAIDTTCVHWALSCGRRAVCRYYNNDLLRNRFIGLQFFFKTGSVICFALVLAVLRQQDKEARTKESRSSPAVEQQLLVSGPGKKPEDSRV
Nature of the data set: HEK293 uptake assay, OATP2B1 (5-carboxyfluorescein substrate). The format is cell-based. The protocol:
The inhibition of OATP2B1 was studied using a HEK293 cell-based uptake assay. HEK293 cells were cultured in DMEM supplemented with 10% FBS at 37 °C and 5% CO2 and seeded at 22,500 cells/well on 96-well plates coated with 0.1 mg/mL poly-D-lysine. After 24 h, the medium was replaced with a transduction mix (DMEM with 10% FBS, 5 mM sodium butyrate, and recombinant OATP2B1 or enhanced yellow fluorescent protein [eYFP, negative control] baculoviruses). The baculoviruses were produced as previously described. The uptake assay was performed after approximately 48 h. […] Test solutions also contained the substrate. Cells were washed with warm transport buffer and preincubated at 37 °C. Preincubation solutions were replaced with test solutions and incubated at 37 °C with shaking at 250 rpm. Transport was terminated by aspirating the test solution and washing the wells with an ice-cold transport buffer (150 μL) three times. Wells were left to dry, and cells were lysed with 0.1 M NaOH. […] Total protein concentration was measured from six random wells with a Pierce Coomassie (Bradford) Assay kit (Thermo Fisher Scientific) to ensure a similar protein concentration in the OATP2B1 and eYFP wells.

For another data set, the target named is T2, BCRP (Homo sapiens, UniProt Q9UNQ0).
T2 sequence (Q9UNQ0 1-655): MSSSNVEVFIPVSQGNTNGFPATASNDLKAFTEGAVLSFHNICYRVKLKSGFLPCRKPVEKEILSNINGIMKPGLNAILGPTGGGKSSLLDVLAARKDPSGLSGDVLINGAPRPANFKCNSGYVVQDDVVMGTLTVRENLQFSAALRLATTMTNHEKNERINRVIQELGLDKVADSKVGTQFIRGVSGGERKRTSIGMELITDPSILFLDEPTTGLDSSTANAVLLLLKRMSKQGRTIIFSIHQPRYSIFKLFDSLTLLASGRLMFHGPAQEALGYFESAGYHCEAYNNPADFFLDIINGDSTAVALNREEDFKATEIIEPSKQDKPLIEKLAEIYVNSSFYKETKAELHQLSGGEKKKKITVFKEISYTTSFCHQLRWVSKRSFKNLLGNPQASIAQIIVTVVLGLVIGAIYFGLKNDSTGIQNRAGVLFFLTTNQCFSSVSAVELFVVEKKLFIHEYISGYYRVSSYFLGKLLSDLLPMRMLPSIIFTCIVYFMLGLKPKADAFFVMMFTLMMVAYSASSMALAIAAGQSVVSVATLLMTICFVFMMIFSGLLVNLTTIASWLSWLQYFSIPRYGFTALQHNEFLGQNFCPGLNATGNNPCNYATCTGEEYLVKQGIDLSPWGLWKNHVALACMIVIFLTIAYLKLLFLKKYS
Nature of the data set: Vesicular transport assay, BCRP (Lucifer yellow substrate). The format is biochemical. Also noted: made in house; host or cells: Spodoptera frugiperda Sf9 cells, crude membrane vesicles.

Protocol for BCRP: Transport inhibition by 22 food additives was tested with Spodoptera frugiperda (Sf9) derived crude membrane vesicles expressing BCRP, MRP2, or P-gp produced in-house. […] Vesicles (50 μg total protein/well) were diluted in an assay buffer (40 mM MOPS–Tris pH 7.0, 60 mM KCl, and 6 mM MgCl2) with the substrate, and food additives (final concentration of 50 μM) in DMSO were added to the mixture. After preincubation, either the assay buffer or Mg-ATP solution (final concentration 4 mM) was added to the plate to start the reaction. The plate was incubated at 37 °C, and the reaction was stopped with an ice-cold washing mixture (40 mM MOPS-Tris pH 7.0 and 70 mM KCl). Samples were moved to a MultiScreenHTS-FB Plate Glass fiber 1.0 μm/0.65 μm Durapore filter plate (Millipore, USA), and the wells were washed five times with the ice-cold washing mixture. For BCRP and MRP2, the fluorescent substrate was eluted from the filters with 100 μL 0.1 M NaOH. For LY samples, an equal volume of 0.1 M HCl was added to neutralize the samples before fluorescence measurement. The amount of the substrate accumulated into the vesicles was measured by fluorescent detection using a Varioskan LUX microplate reader (Thermo Fisher Scientific, Finland) (Table ). The accumulation into the P-gp vesicles was measured with high-performance liquid chromatography (HPLC) (Agilent 110 series, Agilent Technologies, USA) after lysis and elution of the vesicle contents with 100 μL 3:1 methanol/water + 0.1% formic acid. The column used was a Poroshell 120 EC-C18 with a size of 4.6 × 100 mm and 2.7 μm particle size. Eluent A was 0.1% formic acid, and eluent B was acetonitrile. The flow rate of eluent was 1 mL/min, and the injection volume of samples was 10 μL. […] The retention time for NMQ was around 2.5 min.
For the efflux transporters, the relative transport was calculated as relativetransport(%ofcontrol)=transportinh,ATP−transportinh,noATP/transportDMSO,ATP−transportDMSO,noATP×100% where transportinh,ATP and transportinh,no ATP are the transport rates in the presence of food additives with or without ATP, respectively, and transportDMSO,ATP and transportDMSO,no ATP are the corresponding transport rates in the presence of the vehicle (DMSO) with or without ATP.
The half-maximal inhibitory concentrations (IC50) were calculated with GraphPad Prism version 9.0.2 (GraphPad Software, San Diego, CA) using nonlinear regression that fits the data to a four-parameter dose–response curve: relativetransport=minimum+maximum−minimum/1+([I]/IC50)^h where minimum and maximum describe the plateaus of minimal and maximal relative transport (%), [I] is the concentration of inhibitor, and h is the Hill slope, which describes the steepness of the slope.

One may read the IC50 as the midpoint of a concentration-inhibition curve. A word on the inhibition: it is the relative decrease from the control value, in per cent. In the case of `CC1=C(/C=C/C(C)=C/C=C/C(C)=C/C=C/C=C(C)/C=C/C=C(C)/C=C/C2=C(C)CCCC2(C)C)C(C)(C)CCC1` [beta-carotene], the IC50 was determined as 27.5 µM on OATP2B1 (5-carboxyfluorescein 2 μM, HEK293 cells, pH 6, n = 3, read-out: IC50 (95% CI), OATP2B1) and 12.1 µM on BCRP (Lucifer yellow 50 μM, membrane vesicles, n = 3, read-out: IC50 (95% CI), BCRP). The inhibition at 50 μM on OATP2B1 (human, HEK293 cells transduced with recombinant OATP2B1 baculovirus, pH 6, probe 5-carboxyfluorescein 2 μM, food additive 50 μM, n = 1, read-out: inhibition of OATP2B1-mediated uptake) was at least 50%; on BCRP (Sf9-derived crude membrane vesicles expressing BCRP, pH 7, probe Lucifer yellow 50 μM, food additive 50 μM, n = 1, read-out: inhibition of BCRP substrate accumulation), at least 50%.

Values taken from paper PMC12406256, “Food Additives Inhibit Intestinal Drug Transporters but Have Limited Effect on In Vitro Drug Permeability” (Molecular Pharmaceutics, 2025).
